The values that follow are results of earlier work, collected in patent EP2168584A1, “PHARMACEUTICAL COMPOSITION COMPRISING THE COMBINATION OF A TRIAZOLOBENZODIAZEPINE AND A SELECTIVE SEROTONIN REUPTAKE INHIBITOR” (World Trade Import-Export, WTIE A.G., priority 2007, dated 2009).

Read-outs that look alike come from different tables or passages of the source. A value given as a limit tells only on which side of the number the result lay.

For series [1] the following is noted: relative to the therapeutic activity of Alprazolam.

Take `CNCCC(Oc1ccc(C(F)(F)F)cc1)c1ccccc1` (stereo not drawn) [Fluoxetine]: the “degree of fixation of plasma proteins” value with plasma proteins is on record as “especially high”.

With `Cc1nnc2n1-c1ccc(Cl)cc1C(c1ccccc1)=NC2` [Alprazolam], the “bound to human serum proteins” value in the series on human serum proteins was 80%. Further, the “half-life of plasma elimination, range” value (human, in vivo) is 6.3 to 26.9 h. Moreover, the “Maximum plasma concentrations are obtained (time after administration)” value (human, in vivo, po) was 1 to 2 h.

As for `Fc1ccc([C@@H]2CCNC[C@H]2COc2ccc3c(c2)OCO3)cc1` [Paroxetine], in the series with plasma proteins, the “degree of fixation of plasma proteins” value is “especially high”. The “binds to plasma proteins” value in the series on plasma proteins (plasma) was 95%. Besides, the elimination half-life was ≤ 36 h (elderly and severe hepatic failure patients); 21 h (human, in vivo). The oral bioavailability (first-step metabolism) was 50%. For the same molecule, the dose metabolized entry (mainly in the liver, inactive metabolites) is “More than 95%”.

`CN[C@H]1CC[C@@H](c2ccc(Cl)c(Cl)c2)c2ccccc21` [Sertraline]: the “degree of fixation of plasma proteins” value in the series with plasma proteins is on record as “especially high”.

For `OCc1nnc2n1-c1ccc(Cl)cc1C(c1ccccc1)=NC2` [alpha-hydroxy-alprazolam], the “biological activity of metabolite” value in series [1] was “approximately to half of the therapeutic activity of Alprazolam”.
